Results: US20020082254A1, “Compounds for treating disorders where a decreased level of plasma FFA is desired” (priority 2000, published 2002)

Experiments:
Lipoprotein lipase (LPL) = biological target: T1, Lipoprotein lipase (LPL) (Bos taurus, UniProt P11151); experiment: Lipoprotein lipase (LPL) inhibition assay, 3H-triolein/intralipid substrate; format: biochemical; conditions: read-out: LPL inhibition (% inh. at 50 μM)
T1 construct: Dr. Gunilla Olivecrona, Umea University (gift)
T1 sequence (P11151 29-478): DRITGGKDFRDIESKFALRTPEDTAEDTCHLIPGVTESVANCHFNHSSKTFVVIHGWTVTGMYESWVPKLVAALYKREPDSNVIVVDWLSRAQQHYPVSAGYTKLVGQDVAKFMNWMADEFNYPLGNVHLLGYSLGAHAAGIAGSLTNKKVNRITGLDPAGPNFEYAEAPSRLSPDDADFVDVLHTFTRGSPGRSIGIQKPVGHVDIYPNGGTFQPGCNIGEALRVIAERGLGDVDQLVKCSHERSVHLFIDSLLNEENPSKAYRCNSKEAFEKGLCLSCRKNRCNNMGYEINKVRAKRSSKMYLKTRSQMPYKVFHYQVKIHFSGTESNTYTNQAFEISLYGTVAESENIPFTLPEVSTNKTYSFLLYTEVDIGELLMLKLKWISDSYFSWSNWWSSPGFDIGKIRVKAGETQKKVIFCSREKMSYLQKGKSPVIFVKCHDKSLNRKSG
Text: Lipoprotein Lipase (LPL) [Classified as EC 3.1.1.34 in accordance with the Recommendations of the Nomenclature Committee of the International Union of Biochemistry and Molecular Biology (available on the World Wide Web at the following address: http://www.chem.qmw.ac.uk/iubmb/enzyme/)]
Materials. The lipoprotein lipase employed was obtained from Dr. Gunilla Olivecrona of Umea University, Sweden. ^3H-triolein (TO) from Amersham, Buckinghamshire, U.K., cat No. TRA191; 5-20 Ci/mmol dissolved in toluene. Intralipid is from Kabi-Fresenius). Apo CII was obtained from PMSF-treated plasma from overnight fasted rats. All other reagents are of commercial grade and obtained from various commercial sources.
Methods. The preparation of the substrate is as follows:
25 μl of ^3H-Triolein evaporated under a gentle stream of N2 in a 27° C. room in 4 ml chromacol glass followed by the addition of 1 ml 10% intralipid. This is mixed and sonicated on ice for 5 minutes (50% pulse mode). This can be kept for 1 week at 4° C.
100 μl assay medium (0.3M Tris-Cl, 0.2M NaCl, 0.2 mg heparin/ml and 120 mg BSA/ml (fraction V, Sigma no. 3401, pH 8.5))
All mixed in a 13×100 mm glass tube and incubated for at least 5 minutes.
2. Add 5 μl LPL (of a solution containing 500 mU/mg)
Mix and incubate for 30 minutes at 25° C.
3. The reaction is stopped with 3.25 ml of a solution containing Methanol:chloroform:heptan 10:9:7. Add 1.05 ml buffer (100 mM Boric acid, 100 mM potassium carbonate pH 10.5) and mix 10 seconds per vial.
5. Take 1 ml of the upper phase+10 ml scintillation fluid and mix
6. Scintillation count for 5 minutes per vial.

Hepatic lipase (HL) = biological target: T2, Hepatic lipase (HL) (Homo sapiens, UniProt P11150); experiment: Hepatic lipase (HL) inhibition assay, 3H-triolein substrate; format: biochemical; conditions: read-out: HL inhibition (% inh. at 50 μM)
T2 sequence (P11150 23-499): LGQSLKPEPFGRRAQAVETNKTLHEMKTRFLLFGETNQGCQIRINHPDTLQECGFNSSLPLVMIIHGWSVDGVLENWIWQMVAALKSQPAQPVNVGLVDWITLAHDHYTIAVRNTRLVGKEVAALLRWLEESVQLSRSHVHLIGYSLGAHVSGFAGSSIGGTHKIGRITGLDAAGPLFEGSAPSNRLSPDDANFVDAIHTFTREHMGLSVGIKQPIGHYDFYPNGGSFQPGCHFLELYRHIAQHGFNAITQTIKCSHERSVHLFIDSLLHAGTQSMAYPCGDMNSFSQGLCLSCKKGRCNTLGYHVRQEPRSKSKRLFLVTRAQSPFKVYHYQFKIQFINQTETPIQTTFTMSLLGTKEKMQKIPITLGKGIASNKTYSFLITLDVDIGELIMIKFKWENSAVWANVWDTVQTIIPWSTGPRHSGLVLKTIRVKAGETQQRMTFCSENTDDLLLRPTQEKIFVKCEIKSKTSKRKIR
Text: Hepatic Lipase (HL) [classified as a triacylglycerol lipase, EC 3.1.1.3, in accordance with the Recommendations of the Nomenclature Committee of the International Union of Biochemistry and Molecular Biology (available on the World Wide Web at the following address: http://www.chem.qmw.ac.uk/iubmb/enzyme/)]
Materials. The hepatic lipase employed was obtained from Dr. Howard Wong of the University of California at Los Angeles (UCLA), USA, or produced and purified using the methods and a cell line provided by Dr. Wong's laboratory. ^3H-triolein (TO) from Amersham, Buckinghamshire, U.K., cat No. TRA191; 5-20 Ci/mmol dissolved in toluene and triolein (Sigma, Cat. No. T-1740). All other reagents are of commercial grade and obtained from various commercial sources.
50 μl TO in a 20 ml scintillation vial and evaporate with N2 for 5 minutes.
Add 1 ml 10% gum arabic and 1.25 ml Tris-Cl pH 8.5 and 2 ml MilliQ water.
Sonicate, on ice, 16 times for 30 seconds with a 30-second interval between cycles.
Add 2.5 ml of 5 M NaCl+2.5 ml BSA (10% in Milli Q, pH 8)+3.25 ml Milli Q
Total volume: 12.5 ml (for 80 reactions )
If an inhibitor is going to be used, it should be incubated with the 50 μl HL (of a 125 mU/ml solution) for 70 minutes at 25° C. A 5 μl aliquot from the incubated 50 μl is added to 150 μl assay mix+45 μl Milli Q™ water and mixed.
Incubate for exactly 30 minutes at 25° C.
Stop the reaction with Methanol:chloroform:heptane 10:9:7: 3.25 ml/vial, mix; then add 1.05 ml buffer (100 mM boric acid, 100 mM potassium carbonate pH 10.5), mix for 10 seconds per vial.
Centrifuge for 20 min/2000 rpm
Take 1 ml of the upper phase+10 ml scintillation fluid and mix by shaking by hand.
Scintillation count for 5 minutes per vial.

| SMILES | inhibition at 50 µM (Lipoprotein lipase (LPL)) | inhibition at 50 µM (Hepatic lipase (HL)) |
| --- | --- | --- |
| O=C(NN1CCc2ccccc2C1)Oc1ccc(Cl)cc1 [Example 6, (3,4-Dihydro-1H-isoquinolin-2-yl)-carbamic acid 4-chloro-phenyl Ester] | 0% | 6% |
| CC(C)(C)OC(=O)Nc1ccc(OC(=O)NN2CCc3ccccc3C2)cc1 [Example 17, (3,4-Dihydro-1H-isoquinolin-2-yl)-carbamic Acid 4-tert-butoxycarbonylamino-phenyl Ester] | 0% | 3% |
| CC1Cc2ccccc2CN1NC(=O)Oc1ccc(Cl)cc1 (stereo not drawn) [Example 23, (3-Methyl-3,4-dihydro-1H-isoquinolin-2-yl)-carbamic Acid 4-chloro-phenyl Ester] | 4% | 4% |
